ChEMBL document CHEMBL1212896, “Discovery of novel cyanodihydropyridines as potent mineralocorticoid receptor antagonists” (J Med Chem, 2010)

What was measured:
[1] = biological target: T1, Progesterone receptor (Homo sapiens, UniProt P06401); experiment: Antagonist activity at progesterone receptor LBD expressed in human HUH7 cells coexpressing GAL4 by luciferase reporter gene assay; assay type: functional, cell-based, Huh-7
T1 sequence (P06401 whole entry): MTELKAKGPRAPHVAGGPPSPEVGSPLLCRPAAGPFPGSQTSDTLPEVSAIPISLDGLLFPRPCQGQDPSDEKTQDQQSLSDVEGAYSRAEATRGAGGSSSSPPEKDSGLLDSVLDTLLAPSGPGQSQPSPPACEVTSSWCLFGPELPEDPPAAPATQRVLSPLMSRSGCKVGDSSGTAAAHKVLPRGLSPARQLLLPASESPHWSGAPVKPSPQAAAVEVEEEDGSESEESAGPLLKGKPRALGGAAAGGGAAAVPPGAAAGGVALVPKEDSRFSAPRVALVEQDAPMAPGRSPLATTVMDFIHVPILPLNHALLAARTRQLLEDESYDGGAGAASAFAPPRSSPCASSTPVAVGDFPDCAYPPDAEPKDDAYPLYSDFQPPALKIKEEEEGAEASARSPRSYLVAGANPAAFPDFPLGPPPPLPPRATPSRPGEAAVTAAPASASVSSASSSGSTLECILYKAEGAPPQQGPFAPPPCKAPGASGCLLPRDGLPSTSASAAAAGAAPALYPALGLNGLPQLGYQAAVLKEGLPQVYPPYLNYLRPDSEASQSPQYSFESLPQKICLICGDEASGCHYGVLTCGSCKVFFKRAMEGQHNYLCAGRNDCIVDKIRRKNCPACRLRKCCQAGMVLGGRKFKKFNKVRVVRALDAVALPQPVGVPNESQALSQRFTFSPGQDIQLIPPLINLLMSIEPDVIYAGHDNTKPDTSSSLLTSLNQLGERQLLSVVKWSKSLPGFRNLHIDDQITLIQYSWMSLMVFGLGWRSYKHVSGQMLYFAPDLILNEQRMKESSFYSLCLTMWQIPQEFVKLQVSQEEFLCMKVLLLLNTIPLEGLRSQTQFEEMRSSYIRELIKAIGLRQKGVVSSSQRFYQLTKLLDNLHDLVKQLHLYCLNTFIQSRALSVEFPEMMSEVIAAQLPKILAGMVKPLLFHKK

[2] = biological target: T2, Glucocorticoid receptor (Homo sapiens, UniProt P04150); experiment: Antagonist activity at glucocorticoid receptor LBD expressed in human HUH7 cells coexpressing GAL4 by luciferase reporter gene assay; assay type: functional, cell-based, Huh-7
T2 sequence (P04150 whole entry): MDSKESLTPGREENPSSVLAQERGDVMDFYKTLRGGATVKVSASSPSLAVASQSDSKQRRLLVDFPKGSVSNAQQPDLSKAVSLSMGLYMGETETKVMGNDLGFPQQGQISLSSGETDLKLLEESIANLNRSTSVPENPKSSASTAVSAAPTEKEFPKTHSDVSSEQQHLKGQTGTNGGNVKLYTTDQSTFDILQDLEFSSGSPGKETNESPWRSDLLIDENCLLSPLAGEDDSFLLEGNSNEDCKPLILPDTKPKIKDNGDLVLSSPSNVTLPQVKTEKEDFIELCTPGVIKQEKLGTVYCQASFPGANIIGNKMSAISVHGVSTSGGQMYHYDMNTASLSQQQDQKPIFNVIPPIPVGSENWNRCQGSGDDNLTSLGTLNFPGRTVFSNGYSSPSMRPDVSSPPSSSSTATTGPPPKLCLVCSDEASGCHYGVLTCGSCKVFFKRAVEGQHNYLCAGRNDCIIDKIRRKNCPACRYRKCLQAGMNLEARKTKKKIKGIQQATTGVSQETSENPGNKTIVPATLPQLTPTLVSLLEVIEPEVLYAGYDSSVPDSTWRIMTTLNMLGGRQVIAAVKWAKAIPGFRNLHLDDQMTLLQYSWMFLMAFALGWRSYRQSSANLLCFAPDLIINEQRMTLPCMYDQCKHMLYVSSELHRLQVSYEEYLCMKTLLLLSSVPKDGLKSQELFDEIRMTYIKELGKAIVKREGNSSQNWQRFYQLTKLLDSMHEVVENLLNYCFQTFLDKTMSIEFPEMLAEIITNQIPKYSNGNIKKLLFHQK

[3] = test system: Liver microsomes; experiment: Metabolic stability in human liver microsomes assessed as compound remaining; assay type: ADME, Microsome; also: time not given here
[4] = biological target: Cytochrome P450 2D6 (Homo sapiens, UniProt P10635); experiment: Inhibition of CYP2D6; assay type: ADME
Cytochrome P450 2D6, sequence (P10635 whole entry): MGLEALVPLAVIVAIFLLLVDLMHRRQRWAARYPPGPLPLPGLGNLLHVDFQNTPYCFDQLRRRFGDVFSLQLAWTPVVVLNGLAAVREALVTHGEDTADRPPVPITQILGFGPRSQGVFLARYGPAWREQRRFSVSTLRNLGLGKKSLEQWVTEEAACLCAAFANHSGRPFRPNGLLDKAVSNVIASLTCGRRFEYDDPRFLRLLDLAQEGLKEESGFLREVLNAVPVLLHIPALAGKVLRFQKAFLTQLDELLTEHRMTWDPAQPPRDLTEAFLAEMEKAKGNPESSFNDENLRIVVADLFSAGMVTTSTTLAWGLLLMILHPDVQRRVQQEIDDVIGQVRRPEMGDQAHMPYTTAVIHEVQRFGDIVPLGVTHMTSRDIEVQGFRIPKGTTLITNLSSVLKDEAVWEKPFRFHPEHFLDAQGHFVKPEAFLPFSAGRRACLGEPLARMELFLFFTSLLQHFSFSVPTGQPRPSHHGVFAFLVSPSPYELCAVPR

[5] = biological target: Cytochrome P450 2C9 (Homo sapiens, UniProt P11712); experiment: Inhibition of CYP2C9; assay type: ADME
Cytochrome P450 2C9, sequence (P11712 whole entry): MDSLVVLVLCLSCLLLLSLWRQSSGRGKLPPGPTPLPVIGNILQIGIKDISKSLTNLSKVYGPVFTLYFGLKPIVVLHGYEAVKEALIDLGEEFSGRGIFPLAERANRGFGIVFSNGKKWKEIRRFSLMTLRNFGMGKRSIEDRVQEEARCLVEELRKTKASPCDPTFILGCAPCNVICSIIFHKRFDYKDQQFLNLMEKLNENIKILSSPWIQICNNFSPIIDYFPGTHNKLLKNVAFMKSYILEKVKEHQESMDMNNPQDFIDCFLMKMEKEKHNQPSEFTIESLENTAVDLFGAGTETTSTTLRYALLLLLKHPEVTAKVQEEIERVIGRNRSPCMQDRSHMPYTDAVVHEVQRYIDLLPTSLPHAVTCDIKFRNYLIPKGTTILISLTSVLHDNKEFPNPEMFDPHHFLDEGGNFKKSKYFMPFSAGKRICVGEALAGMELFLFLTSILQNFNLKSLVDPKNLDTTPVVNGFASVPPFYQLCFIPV

[6] = biological target: Cytochrome P450 3A4 (Homo sapiens, UniProt P08684); experiment: Inhibition of CYP3A4; assay type: ADME
Cytochrome P450 3A4, sequence (P08684 whole entry, the tested form may be a part): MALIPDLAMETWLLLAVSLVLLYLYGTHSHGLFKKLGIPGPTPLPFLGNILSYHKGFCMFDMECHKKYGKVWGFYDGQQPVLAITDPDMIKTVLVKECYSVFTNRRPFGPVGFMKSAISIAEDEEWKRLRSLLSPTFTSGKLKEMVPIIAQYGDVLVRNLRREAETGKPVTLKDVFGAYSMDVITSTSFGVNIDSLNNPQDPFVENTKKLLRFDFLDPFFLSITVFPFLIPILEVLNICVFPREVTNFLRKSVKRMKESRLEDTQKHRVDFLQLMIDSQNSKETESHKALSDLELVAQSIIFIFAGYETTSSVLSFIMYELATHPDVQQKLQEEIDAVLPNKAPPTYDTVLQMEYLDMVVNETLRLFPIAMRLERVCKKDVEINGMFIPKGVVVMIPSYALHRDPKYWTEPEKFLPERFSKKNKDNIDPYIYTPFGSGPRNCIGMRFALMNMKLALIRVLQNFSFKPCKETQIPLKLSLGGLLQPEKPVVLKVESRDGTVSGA

[7] = biological target: T3, Androgen receptor (Homo sapiens, UniProt P10275); experiment: Antagonist activity at androgen receptor LBD expressed in human HUH7 cells coexpressing GAL4 by luciferase reporter gene assay; assay type: functional, cell-based, Huh-7
T3 sequence (P10275 whole entry): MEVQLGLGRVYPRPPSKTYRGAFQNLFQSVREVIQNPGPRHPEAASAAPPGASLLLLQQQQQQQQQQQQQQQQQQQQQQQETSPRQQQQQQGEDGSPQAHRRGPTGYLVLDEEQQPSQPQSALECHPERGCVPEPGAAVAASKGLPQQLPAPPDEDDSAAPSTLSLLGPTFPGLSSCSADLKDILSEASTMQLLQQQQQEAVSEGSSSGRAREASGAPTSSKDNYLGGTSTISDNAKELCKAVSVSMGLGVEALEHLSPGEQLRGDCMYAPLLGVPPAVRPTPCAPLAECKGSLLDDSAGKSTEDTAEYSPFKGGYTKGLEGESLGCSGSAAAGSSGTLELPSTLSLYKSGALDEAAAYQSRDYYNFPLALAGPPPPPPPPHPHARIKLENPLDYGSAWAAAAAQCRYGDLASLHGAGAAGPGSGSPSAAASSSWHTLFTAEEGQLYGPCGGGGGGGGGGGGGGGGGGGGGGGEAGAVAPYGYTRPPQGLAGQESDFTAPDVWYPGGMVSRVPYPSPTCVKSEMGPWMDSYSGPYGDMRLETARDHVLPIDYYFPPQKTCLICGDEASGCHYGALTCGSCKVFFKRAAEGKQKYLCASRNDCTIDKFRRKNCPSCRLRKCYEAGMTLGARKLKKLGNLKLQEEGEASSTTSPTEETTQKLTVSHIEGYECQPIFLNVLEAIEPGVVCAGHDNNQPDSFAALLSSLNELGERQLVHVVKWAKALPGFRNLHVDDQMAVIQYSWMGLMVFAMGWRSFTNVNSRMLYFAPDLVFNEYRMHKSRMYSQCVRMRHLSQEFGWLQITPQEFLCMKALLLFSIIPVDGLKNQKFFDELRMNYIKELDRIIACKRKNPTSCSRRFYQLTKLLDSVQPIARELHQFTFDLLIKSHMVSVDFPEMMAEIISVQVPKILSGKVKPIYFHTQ

Row | SMILES | IC50 [1] | IC50 [2] | Stability [3] | IC50 [4] | IC50 [5] | IC50 [6] | IC50 [7] | inhibition (INH) [4] | inhibition (INH) [5] | inhibition (INH) [6]
1 | COC(=O)C1=C(Cn2ccnc2)NC(C)=C(C#N)C1c1ccc(F)cc1Cl (stereo not given) | > 10 µM | 2.2 µM | 8% | > 10 µM | 1 µM | 0.2 µM | 3.9 µM | – | – | –
2 | COC(=O)C1=C(Cn2cncn2)NC(C)=C(C#N)C1c1ccc(F)cc1Cl (stereo not given) | 7 µM | 2.9 µM | 9% | > 10 µM | 0.1 µM | 0.8 µM | 4.6 µM | – | – | –
3 | CCCC1=C(C(=O)OC)C(c2ccccc2Cl)C(C#N)=C(C)N1 (stereo not given) | 0.2 µM | 1.6 µM | 36% | – | – | – | 0.3 µM | 19% | 83% | 71%
4 | COC(=O)C1=C(C)NC(C)=C(C#N)C1c1ccc(F)cc1Cl (stereo not given) | 0.9 µM | 5.1 µM | 37% | – | – | – | 0.3 µM | 0% | 44% | 40%
5 | COC(=O)C1=C(Cn2cnnn2)NC(C)=C(C#N)C1c1ccc(F)cc1Cl (stereo not given) | > 10 µM | 1.3 µM | 3% | > 10 µM | 1.9 µM | 1.2 µM | 2.7 µM | – | – | –
